The values that follow come from patent US11673901B2, “Polycyclic compounds as allosteric SHP2 inhibitors” (Revolution Medicines, Inc., priority 2017, dated 2023).

Broadly, the IC50 is the concentration that inhibits the measured activity by half. A low value points to greater potency in that assay.

Sequence of SHP2 (Q06124 whole entry): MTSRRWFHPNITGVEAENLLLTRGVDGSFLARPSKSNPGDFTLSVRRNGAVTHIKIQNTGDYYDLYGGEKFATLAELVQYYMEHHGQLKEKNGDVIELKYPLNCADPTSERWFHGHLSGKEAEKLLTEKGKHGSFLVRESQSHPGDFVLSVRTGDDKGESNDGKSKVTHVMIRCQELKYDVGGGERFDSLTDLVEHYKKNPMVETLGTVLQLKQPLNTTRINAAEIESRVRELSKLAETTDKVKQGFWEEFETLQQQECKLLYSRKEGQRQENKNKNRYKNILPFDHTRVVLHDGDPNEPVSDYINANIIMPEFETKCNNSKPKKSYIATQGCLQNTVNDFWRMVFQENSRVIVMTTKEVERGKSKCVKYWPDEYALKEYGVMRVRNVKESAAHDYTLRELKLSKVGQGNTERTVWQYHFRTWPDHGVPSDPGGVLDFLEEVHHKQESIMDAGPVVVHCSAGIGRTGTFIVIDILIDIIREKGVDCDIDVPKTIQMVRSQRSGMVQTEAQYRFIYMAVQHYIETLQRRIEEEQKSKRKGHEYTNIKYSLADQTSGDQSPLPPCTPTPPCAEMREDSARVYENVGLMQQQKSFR

The test deals with SHP2 (Homo sapiens (Human), UniProt Q06124). The experiment in a line: SHP2 allosteric inhibition assay (DiFMUP prompt fluorescence). Type of test: biochemical. To be noted: 0.2 nM SHP2 activated with 0.5 μM Activating Peptide 1 or 2; substrate DiFMUP; Table 2, class symbols. From the text:
Without wishing to be bound by theory, SHP2 is allosterically activated through binding of bis-tyrosyl-phosphorylated peptides to its Src Homology 2 (SH2) domains. The latter activation step leads to the release of the auto-inhibitory interface of SHP2, which in turn renders the SHP2 protein tyrosine phosphatase (PTP) active and available for substrate recognition and reaction catalysis. The catalytic activity of SHP2 was monitored using the surrogate substrate DiFMUP in a prompt fluorescence assay format.
The phosphatase reactions were performed at room temperature in 96-well black polystyrene plate, flat bottom, non-binding surface (Corning, Cat #3650) using a final reaction volume of 100 μL and the following assay buffer conditions: 50 mM HEPES, pH 7.2, 100 mM NaCl, 0.5 mM EDTA, 0.05% P-20, 1 mM DTT.
The inhibition of SHP2 by compounds of the invention (concentrations varying from 0.00005-10 μM) was monitored using an assay in which 0.2 nM of SHP2 was incubated with 0.5 μM of Activating Peptide 1 (sequence: H2N-LN(pY)IDLDLV(dPEG8)LST(pY)ASINFQK-amide) or Activating Peptide 2 (sequence: H2N-LN(pY)AQLWHA(dPEG8)LTI(pY)ATIRRF-amide). After 30-60-minutes incubation at 25° C., the surrogate substrate DiFMUP (Invitrogen, Cat #D6567) was added to the reaction and activity was determined by a kinetic read using a microplate reader (Envision, Perkin-Elmer or Spectramax M5, Molecular Devices). The excitation and emission wavelengths were 340 nm and 450 nm, respectively. Initial rates were determined from a linear fit of the data, and the inhibitor dose response curves were analyzed using normalized IC50 regression curve fitting with control based normalization.
`Cc1nc(N2CCC3(CC2)CO[C@@H](C)[C@H]3N)n2ccnc2c1-c1ccc2nccnc2c1Cl` [Compound 41, (3S,4S)-8-[8-(5-chloroquinoxalin-6-yl)-7-methylimidazo[1,2-c]pyrimidin-5-yl]-3-methyl-2-oxa-8-azaspiro[4.5]decan-4-amine] registered an IC50 of at most 50 nM.

`Cc1nc(N2CCC3(CC2)CO[C@@H](C)[C@H]3N)n2ccnc2c1-c1cc2ccccc2n1C` [Compound 40, (3S,4S)-3-methyl-8-[7-methyl-8-(1-methyl-1H-indol-2-yl)imidazo[1,2-c]pyrimidin-5-yl]-2-oxa-8-azaspiro[4.5]decan-4-amine]: the IC50 is at most 50 nM.

In the case of `Nc1nccc(Sc2cnc(N3CC[C@@H](O)C3)n3ccnc23)c1Cl` [Compound 77], the IC50 is over 500 nM.

As to `Cc1nc(N2CCC3(CC2)CO[C@@H](C)[C@H]3N)n2ccnc2c1-c1cc2[nH]ncc2cc1Cl` [Compound 38, (3S,4S)-8-[8-(5-chloro-2H-indazol-6-yl)-7-methylimidazo[1,2-c]pyrimidin-5-yl]-3-methyl-2-oxa-8-azaspiro[4.5]decan-4-amine], the IC50 was at most 50 nM.

In turn, `Cc1nc(N2CCC3(CC2)CO[C@@H](C)[C@H]3N)n2ccnc2c1-c1cccc2cc[nH]c12` [Compound 35, (3S,4S)-8-[8-(1H-indol-7-yl)-7-methylimidazo[1,2-c]pyrimidin-5-yl]-3-methyl-2-oxa-8-azaspiro[4.5]decan-4-amine] displayed an IC50 of at most 50 nM.

In turn, `Cc1nc(N2CCC3(CC2)CO[C@@H](C)[C@H]3N)n2ccnc2c1-c1cc(Cl)c2cn[nH]c2c1` [Compound 37, (3S,4S)-8-[8-(4-chloro-2H-indazol-6-yl)-7-methylimidazo[1,2-c]pyrimidin-5-yl]-3-methyl-2-oxa-8-azaspiro[4.5]decan-4-amine] gave an IC50 of at most 50 nM.

In turn, `Cc1nc(N2CCC3(CC2)CO[C@@H](C)[C@H]3N)n2ccnc2c1-c1ccn2ccnc2c1` [Compound 51, (3S,4S)-8-(8-imidazo[1,2-a]pyridin-7-yl-7-methyl-imidazo[1,2-c]pyrimidin-5-yl)-3-methyl-2-oxa-8-azaspiro[4.5]decan-4-amine] returned an IC50 of 50 to 500 nM.

For `NCCNc1ncc(Sc2ccnc(N)c2Cl)c2nccn12` [Compound 23, N1-{8-[(2-amino-3-chloropyridin-4-yl)sulfanyl]imidazo[1,2-c]pyrimidin-5-yl}ethane-1,2-diamine], the 50% inhibitory concentration (IC50) was over 500 nM.

With `CC1(N)CCN(c2ncc(Sc3ccnc(N)c3Cl)c3nncn23)CC1` [Compound 7, 4-{[5-(4-amino-4-methylpiperidin-1-yl)-[1,2,4]triazolo[4,3-c]pyrimidin-8-yl]sulfanyl}-3-chloropyridin-2-amine], the IC50 lay within 50 to 500 nM.

In turn, `Nc1nccc(Sc2cnc(N3CC[C@H](O)C3)n3ccnc23)c1Cl` [Compound 76] yielded an IC50 of over 500 nM.

Molecule `Cc1nc(N2CCC3(CC2)CO[C@@H](C)[C@H]3N)n2ccnc2c1-c1ccnc2cc[nH]c12` [Compound 53, (3S,4S)-3-methyl-8-(7-methyl-8-{1H-pyrrolo[3,2-b]pyridin-7-yl}imidazo[1,2-c]pyrimidin-5-yl)-2-oxa-8-azaspiro[4.5]decan-4-amine] yielded an IC50 of at most 50 nM.

As for `Nc1nccc(Sc2cnc(N3CCOCC3)n3ccnc23)c1Cl` [Compound 68], the IC50 was over 500 nM.

As for `Nc1nccc(Sc2cnc(N3CC4(CC(N)C4)C3)n3ccnc23)c1Cl` [Compound 19, 2-{8-[(2-amino-3-chloropyridin-4-yl)sulfanyl]imidazo[1,2-c]pyrimidin-5-yl}-2-azaspiro[3.3]heptan-6-amine], the IC50 was over 500 nM.

`CC1(O)CCN(c2ncc(Sc3ccnc(N)c3Cl)c3nccn23)CC1` [Compound 79] gave an IC50 of over 500 nM.

As to `Cc1cc(Sc2cnc(N3CCC4(CC3)CO[C@@H](C)[C@H]4N)n3ccnc23)cc(N)n1` [Compound 18, (3S,4S)-8-{8-[(2-amino-6-methylpyridin-4-yl)sulfanyl]imidazo[1,2-c]pyrimidin-5-yl}-3-methyl-2-oxa-8-azaspiro[4.5]decan-4-amine], the IC50 is 50 to 500 nM.

The molecule `Cc1nc(N2CCC3(CC2)CO[C@@H](C)[C@H]3N)n2ccnc2c1-c1ccc2c(c1Cl)OCC2` [Compound 44, (3S,4S)-8-[8-(7-chloro-2,3-dihydro-1-benzofuran-6-yl)-7-methylimidazo[1,2-c]pyrimidin-5-yl]-3-methyl-2-oxa-8-azaspiro[4.5]decan-4-amine] yielded an IC50 of at most 50 nM.

For the molecule `Nc1nccc(Sc2cnc(O[C@H]3CC[C@@H](N)C3)n3ccnc23)c1Cl` [Compound 81, 4-[(5-{[(1S,3R)-3-aminocyclopentyl]oxy}imidazo[1,2-c]pyrimidin-8-yl)sulfanyl]-3-chloropyridin-2-amine], the IC50 is over 500 nM.

For the molecule `Nc1nccc(Sc2cnc(N3CCC(c4ncc[nH]4)CC3)n3ccnc23)c1Cl` [Compound 78], the IC50 was over 500 nM.

`Cc1nc(N2CCC3(CC2)CO[C@@H](C)[C@H]3N)n2ccnc2c1-c1ccc2cn[nH]c2c1` [Compound 30, (3S,4S)-8-[8-(2H-indazol-6-yl)-7-methylimidazo[1,2-c]pyrimidin-5-yl]-3-methyl-2-oxa-8-azaspiro[4.5]decan-4-amine] showed an IC50 of at most 50 nM.

The molecule `CC1(N)CN(c2ncc(Sc3ccnc(N)c3Cl)c3nccn23)C1` [Compound 26, 4-{[5-(3-amino-3-methylazetidin-1-yl)imidazo[1,2-c]pyrimidin-8-yl]sulfanyl}-3-chloropyridin-2-amine] registered an IC50 of over 500 nM.

The molecule `C[C@@H]1OCC2(CCN(c3ncc(Sc4ccnc(N5CC(C#N)C5)c4Cl)c4nccn34)CC2)[C@@H]1N` [Compound 13, 1-[4-({5-[(3S,4S)-4-amino-3-methyl-2-oxa-8-azaspiro[4.5]decan-8-yl]imidazo[1,2-c]pyrimidin-8-yl}sulfanyl)-3-chloropyridin-2-yl]azetidine-3-carbonitrile] returned an IC50 of at most 50 nM.

In turn, `Nc1nccc(Sc2cnc(N3CC[C@H](N)C3)n3ccnc23)c1Cl` [Compound 21, 4-({5-[(3S)-3-aminopyrrolidin-1-yl]imidazo[1,2-c]pyrimidin-8-yl}sulfanyl)-3-chloropyridin-2-amine] displayed an IC50 of over 500 nM.

Turning to `Nc1nccc(Sc2cnc(N3CCC4(CC3)CNC4)n3ccnc23)c1Cl` [Compound 20, 3-chloro-4-[(5-{2,7-diazaspiro[3.5]nonan-7-yl}imidazo[1,2-c]pyrimidin-8-yl)sulfanyl]pyridin-2-amine], the concentration for half-maximal inhibition (IC50) lay within 50 to 500 nM.
